# According to ChEMBL document CHEMBL1125508:
# Positions count from the first letter of the chain named.
# Assays:
# [1] = system: T1, Dihydrofolate reductase (Escherichia coli), P0ABQ4 [T46N]
# T1 sequence (whole entry): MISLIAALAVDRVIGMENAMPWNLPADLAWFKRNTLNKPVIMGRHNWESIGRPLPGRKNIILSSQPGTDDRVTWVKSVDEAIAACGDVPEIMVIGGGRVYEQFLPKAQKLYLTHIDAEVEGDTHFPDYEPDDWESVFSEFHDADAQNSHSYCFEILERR
# [2] = target: T2, Dihydrofolate reductase (Escherichia coli) (UniProt P0ABQ4)
# T2 sequence (whole entry): T1 sequence (whole entry) with N46T
# Description: Dissociation rate constant of compound for wild type Escherichia coli dihydrofolate reductase
# [3] = system: T3, Dihydrofolate reductase (Escherichia coli), P0ABQ4 [T46A]
# T3 sequence (whole entry): T1 sequence (whole entry) with N46A
# [4] = system: T4, Dihydrofolate reductase (Escherichia coli), P0ABQ4 [T46S]
# T4 sequence (whole entry): T1 sequence (whole entry) with N46S
# [5] = target: T2, Dihydrofolate reductase (Escherichia coli); remark: listed apart in the source
# Description: Rate of hydride transfer (E-N) of compound for wild type Escherichia coli dihydrofolate reductase
Compound,k off [1] [s⁻¹],k off [2] [s⁻¹],k off [3] [s⁻¹],k off [4] [s⁻¹],Rate of hydride transfer [5] [s⁻¹]
NC(=O)c1ccc[n+]([C@H]2O[C@@H](COP(=O)([O-])OP(=O)(O)OC[C@H]3O[C@@H](n4cnc5c(N)ncnc54)[C@H](OP(=O)(O)O)[C@@H]3O)[C@H](O)[C@@H]2O)c1,253,200,274,230,
NC(=O)c1ccc[n+]([C@@H]2O[C@H](COP(=O)([O-])OP(=O)(O)OC[C@H]3O[C@@H](n4cnc5c(N)ncnc54)[C@H](OP(=O)(O)O)[C@@H]3O)[C@@H](O)[C@H]2O)c1,56,3.5,28,60,
Nc1nc(=O)c2c([nH]1)NCC(CNc1ccc(C(=O)N[C@@H](CCC(=O)O)C(=O)O)cc1)=N2,,22,,,
Nc1nc(O)c2c(n1)NCC(CNc1ccc(C(=O)N[C@@H](CCC(=O)O)C(=O)O)cc1)N2 (stereo not given in full),,,,,950
